In the supplement of paper PMC13380429:
± gives the standard deviation of the averaged measurements.

Legend:
Conditions in all cases: 72 h
Caco-2 [1] = assay: cell viability relative to DMSO; higher = less toxic
Calu-3 [2] = assay: as above
HepG2 [3] = assay: as above
U2OS [4] = assay: as above
Vero E6 [5] = assay: as above
Caco-2 [6] = assay: relative viability EC50 (midpoint between 100% and the lowest measured viability); higher = less toxic
Calu-3 [7] = assay: as above
HepG2 [8] = assay: as above
U2OS [9] = assay: as above
Vero E6 [10] = assay: as above
Caco-2 [11] = assay: drug sensitivity score (DSS) for viability; higher = more toxic; extreme values may be limits of the assay
Calu-3 [12] = assay: as above
HepG2 [13] = assay: as above
U2OS [14] = assay: as above
Vero E6 [15] = assay: as above

CCOCC(O)COc1ccc(NC(=O)CC[S+](C)C)cc1 (stereo not given) [suplatast]
cell viability (Caco-2 [1]; 1 nM): 95.9% | cell viability (Caco-2 [1]; 10 nM): 99% | cell viability (Caco-2 [1]; 100 nM): 99.1% | cell viability (Caco-2 [1]; 1000 nM): 98.5% | cell viability (Caco-2 [1]; 10000 nM): 104% | cell viability (Calu-3 [2]; 1 nM): 94.8% | cell viability (Calu-3 [2]; 10 nM): 93.1% | cell viability (Calu-3 [2]; 100 nM): 93.4% | cell viability (Calu-3 [2]; 1000 nM): 102% | cell viability (Calu-3 [2]; 10000 nM): 101% | cell viability (HepG2 [3]; 1 nM): 93.8% | cell viability (HepG2 [3]; 10 nM): 94.3% | cell viability (HepG2 [3]; 100 nM): 85% | cell viability (HepG2 [3]; 1000 nM): 91.2% | cell viability (HepG2 [3]; 10000 nM): 94.1% | cell viability (U2OS [4]; 1 nM): 99.1% | cell viability (U2OS [4]; 10 nM): 96.4% | cell viability (U2OS [4]; 100 nM): 100% | cell viability (U2OS [4]; 1000 nM): 100% | cell viability (U2OS [4]; 10000 nM): 101% | cell viability (Vero E6 [5]; 1 nM): 87.8% | cell viability (Vero E6 [5]; 10 nM): 98.2% | cell viability (Vero E6 [5]; 100 nM): 93.3% | cell viability (Vero E6 [5]; 1000 nM): 94.8% | cell viability (Vero E6 [5]; 10000 nM): 104% | relative viability EC50 (Caco-2 [6]): > 10 µM | relative viability EC50 (Calu-3 [7]): > 10 µM | relative viability EC50 (HepG2 [8]): > 10 µM | relative viability EC50 (U2OS [9]): > 10 µM | relative viability EC50 (Vero E6 [10]): > 10 µM | drug sensitivity score (Caco-2 [11]): 0 | drug sensitivity score (Calu-3 [12]): 0 | drug sensitivity score (HepG2 [13]): 0 | drug sensitivity score (U2OS [14]): 0 | drug sensitivity score (Vero E6 [15]): 0

CN1C(=O)C[C@@H](C(=O)N[C@@H](Cc2c[nH]cn2)C(=O)N2CCC[C@H]2C(N)=O)NC1=O [taltirelin]
cell viability (Caco-2 [1]; 1 nM): 101% | cell viability (Caco-2 [1]; 10 nM): 100% | cell viability (Caco-2 [1]; 100 nM): 97.2% | cell viability (Caco-2 [1]; 1000 nM): 97.6% | cell viability (Caco-2 [1]; 10000 nM): 95.9% | cell viability (Calu-3 [2]; 1 nM): 96.3% | cell viability (Calu-3 [2]; 10 nM): 94.7% | cell viability (Calu-3 [2]; 100 nM): 101% | cell viability (Calu-3 [2]; 1000 nM): 97.8% | cell viability (Calu-3 [2]; 10000 nM): 84.9% | cell viability (HepG2 [3]; 1 nM): 106% | cell viability (HepG2 [3]; 10 nM): 99.6% | cell viability (HepG2 [3]; 100 nM): 99% | cell viability (HepG2 [3]; 1000 nM): 104% | cell viability (HepG2 [3]; 10000 nM): 108% | cell viability (U2OS [4]; 1 nM): 105% | cell viability (U2OS [4]; 10 nM): 96.2% | cell viability (U2OS [4]; 100 nM): 99.5% | cell viability (U2OS [4]; 1000 nM): 98.1% | cell viability (U2OS [4]; 10000 nM): 101% | cell viability (Vero E6 [5]; 1 nM): 99% | cell viability (Vero E6 [5]; 10 nM): 96.8% | cell viability (Vero E6 [5]; 100 nM): 104% | cell viability (Vero E6 [5]; 1000 nM): 97.4% | cell viability (Vero E6 [5]; 10000 nM): 98.3% | relative viability EC50 (Caco-2 [6]): > 10 µM | relative viability EC50 (Calu-3 [7]): > 10 µM | relative viability EC50 (HepG2 [8]): > 10 µM | relative viability EC50 (U2OS [9]): > 10 µM | relative viability EC50 (Vero E6 [10]): > 10 µM | drug sensitivity score (Caco-2 [11]): 0 | drug sensitivity score (Calu-3 [12]): 0.5 | drug sensitivity score (HepG2 [13]): 0 | drug sensitivity score (U2OS [14]): 0 | drug sensitivity score (Vero E6 [15]): 0

CCCCCCCCCCCCCCSCC(=O)O [tetradecylthioacetic-acid]
cell viability (Caco-2 [1]; 1 nM): 93.1% | cell viability (Caco-2 [1]; 10 nM): 104% | cell viability (Caco-2 [1]; 100 nM): 104% | cell viability (Caco-2 [1]; 1000 nM): 83.9% | cell viability (Caco-2 [1]; 10000 nM): 108% | cell viability (Calu-3 [2]; 1 nM): 95.2% | cell viability (Calu-3 [2]; 10 nM): 102% | cell viability (Calu-3 [2]; 100 nM): 99.1% | cell viability (Calu-3 [2]; 1000 nM): 108% | cell viability (Calu-3 [2]; 10000 nM): 109% | cell viability (HepG2 [3]; 1 nM): 90.8% | cell viability (HepG2 [3]; 10 nM): 102% | cell viability (HepG2 [3]; 100 nM): 86.4% | cell viability (HepG2 [3]; 1000 nM): 102% | cell viability (HepG2 [3]; 10000 nM): 119% | cell viability (U2OS [4]; 1 nM): 98.1% | cell viability (U2OS [4]; 10 nM): 101% | cell viability (U2OS [4]; 100 nM): 93.5% | cell viability (U2OS [4]; 1000 nM): 97.2% | cell viability (U2OS [4]; 10000 nM): 100% | cell viability (Vero E6 [5]; 1 nM): 103% | cell viability (Vero E6 [5]; 10 nM): 95.6% | cell viability (Vero E6 [5]; 100 nM): 98.2% | cell viability (Vero E6 [5]; 1000 nM): 99.2% | cell viability (Vero E6 [5]; 10000 nM): 94.6% | relative viability EC50 (Caco-2 [6]): > 10 µM | relative viability EC50 (Calu-3 [7]): > 10 µM | relative viability EC50 (HepG2 [8]): > 10 µM | relative viability EC50 (U2OS [9]): > 10 µM | relative viability EC50 (Vero E6 [10]): > 10 µM | drug sensitivity score (Caco-2 [11]): 0 | drug sensitivity score (Calu-3 [12]): 0 | drug sensitivity score (HepG2 [13]): 0 | drug sensitivity score (U2OS [14]): 0 | drug sensitivity score (Vero E6 [15]): 0

c1ccc(C2CN3CCSC3=N2)cc1 (stereo not given) [tetramisole]
cell viability (Caco-2 [1]; 1 nM): 95 ± 7.1% | cell viability (Caco-2 [1]; 10 nM): 102 ± 11% | cell viability (Caco-2 [1]; 100 nM): 92.65 ± 0.78% | cell viability (Caco-2 [1]; 1000 nM): 91.9 ± 8.6% | cell viability (Caco-2 [1]; 10000 nM): 96.5 ± 1.7% | cell viability (Calu-3 [2]; 1 nM): 98.7 ± 5% | cell viability (Calu-3 [2]; 10 nM): 97.85 ± 0.92% | cell viability (Calu-3 [2]; 100 nM): 99.7 ± 1.3% | cell viability (Calu-3 [2]; 1000 nM): 110 ± 12% | cell viability (Calu-3 [2]; 10000 nM): 94.7 ± 1.6% | cell viability (HepG2 [3]; 1 nM): 101.9 ± 0.14% | cell viability (HepG2 [3]; 10 nM): 95.6 ± 0.57% | cell viability (HepG2 [3]; 100 nM): 96.2 ± 3.5% | cell viability (HepG2 [3]; 1000 nM): 93.1 ± 5.7% | cell viability (HepG2 [3]; 10000 nM): 100 ± 4.2% | cell viability (U2OS [4]; 1 nM): 99.8 ± 1.8% | cell viability (U2OS [4]; 10 nM): 98.2 ± 2.3% | cell viability (U2OS [4]; 100 nM): 98.3 ± 1.8% | cell viability (U2OS [4]; 1000 nM): 97.9 ± 1.1% | cell viability (U2OS [4]; 10000 nM): 100 ± 6.9% | cell viability (Vero E6 [5]; 1 nM): 93.8 ± 2.8% | cell viability (Vero E6 [5]; 10 nM): 98.5 ± 1.6% | cell viability (Vero E6 [5]; 100 nM): 96.2 ± 3.3% | cell viability (Vero E6 [5]; 1000 nM): 96.8 ± 0.57% | cell viability (Vero E6 [5]; 10000 nM): 101 ± 1.1% | relative viability EC50 (Caco-2 [6]): > 10 µM | relative viability EC50 (Calu-3 [7]): > 10 µM | relative viability EC50 (HepG2 [8]): > 10 µM | relative viability EC50 (U2OS [9]): > 10 µM | relative viability EC50 (Vero E6 [10]): > 10 µM | drug sensitivity score (Caco-2 [11]): 0.85 ± 1.2 | drug sensitivity score (Calu-3 [12]): 0 | drug sensitivity score (HepG2 [13]): 0 | drug sensitivity score (U2OS [14]): 0 | drug sensitivity score (Vero E6 [15]): 0

O=C(O)CNC(=O)C(CS)Cc1ccccc1 (stereo not given) [thiorphan]
cell viability (Caco-2 [1]; 1 nM): 107% | cell viability (Caco-2 [1]; 10 nM): 99% | cell viability (Caco-2 [1]; 100 nM): 86.2% | cell viability (Caco-2 [1]; 1000 nM): 102% | cell viability (Caco-2 [1]; 10000 nM): 110% | cell viability (Calu-3 [2]; 1 nM): 103% | cell viability (Calu-3 [2]; 10 nM): 99.5% | cell viability (Calu-3 [2]; 100 nM): 98.6% | cell viability (Calu-3 [2]; 1000 nM): 95.5% | cell viability (Calu-3 [2]; 10000 nM): 114% | cell viability (HepG2 [3]; 1 nM): 94.2% | cell viability (HepG2 [3]; 10 nM): 90.9% | cell viability (HepG2 [3]; 100 nM): 99.7% | cell viability (HepG2 [3]; 1000 nM): 92.1% | cell viability (HepG2 [3]; 10000 nM): 95.7% | cell viability (U2OS [4]; 1 nM): 99.4% | cell viability (U2OS [4]; 10 nM): 103% | cell viability (U2OS [4]; 100 nM): 98.7% | cell viability (U2OS [4]; 1000 nM): 98.7% | cell viability (U2OS [4]; 10000 nM): 96.9% | cell viability (Vero E6 [5]; 1 nM): 107% | cell viability (Vero E6 [5]; 10 nM): 95% | cell viability (Vero E6 [5]; 100 nM): 94.3% | cell viability (Vero E6 [5]; 1000 nM): 101% | cell viability (Vero E6 [5]; 10000 nM): 104% | relative viability EC50 (Caco-2 [6]): > 10 µM | relative viability EC50 (Calu-3 [7]): > 10 µM | relative viability EC50 (HepG2 [8]): > 10 µM | relative viability EC50 (U2OS [9]): > 10 µM | relative viability EC50 (Vero E6 [10]): > 10 µM | drug sensitivity score (Caco-2 [11]): 0 | drug sensitivity score (Calu-3 [12]): 0 | drug sensitivity score (HepG2 [13]): 0 | drug sensitivity score (U2OS [14]): 0 | drug sensitivity score (Vero E6 [15]): 0

O=C(Cn1c(=O)sc2ccc(Cl)cc21)N1CCN(CCO)CC1 [tiaramide]
cell viability (Caco-2 [1]; 1 nM): 112% | cell viability (Caco-2 [1]; 10 nM): 91.4% | cell viability (Caco-2 [1]; 100 nM): 96.7% | cell viability (Caco-2 [1]; 1000 nM): 96.3% | cell viability (Caco-2 [1]; 10000 nM): 101% | cell viability (Calu-3 [2]; 1 nM): 92.2% | cell viability (Calu-3 [2]; 10 nM): 101% | cell viability (Calu-3 [2]; 100 nM): 90.6% | cell viability (Calu-3 [2]; 1000 nM): 92.4% | cell viability (Calu-3 [2]; 10000 nM): 105% | cell viability (HepG2 [3]; 1 nM): 94.9% | cell viability (HepG2 [3]; 10 nM): 109% | cell viability (HepG2 [3]; 100 nM): 108% | cell viability (HepG2 [3]; 1000 nM): 88.8% | cell viability (HepG2 [3]; 10000 nM): 89.3% | cell viability (U2OS [4]; 1 nM): 101% | cell viability (U2OS [4]; 10 nM): 101% | cell viability (U2OS [4]; 100 nM): 98.7% | cell viability (U2OS [4]; 1000 nM): 100% | cell viability (U2OS [4]; 10000 nM): 98.7% | cell viability (Vero E6 [5]; 1 nM): 107% | cell viability (Vero E6 [5]; 10 nM): 95.2% | cell viability (Vero E6 [5]; 100 nM): 94.3% | cell viability (Vero E6 [5]; 1000 nM): 101% | cell viability (Vero E6 [5]; 10000 nM): 93.4% | relative viability EC50 (Caco-2 [6]): > 10 µM | relative viability EC50 (Calu-3 [7]): > 10 µM | relative viability EC50 (HepG2 [8]): > 10 µM | relative viability EC50 (U2OS [9]): > 10 µM | relative viability EC50 (Vero E6 [10]): > 10 µM | drug sensitivity score (Caco-2 [11]): 0 | drug sensitivity score (Calu-3 [12]): 0 | drug sensitivity score (HepG2 [13]): 0.2 | drug sensitivity score (U2OS [14]): 0 | drug sensitivity score (Vero E6 [15]): 0
